Measured values from PubChem BioAssay AID623903 (Broad Institute, 2012).
“And” between values parts separate entries of the source, which are not always exact repeats. Identical values can stand only once. The source made the active and inactive calls.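 Rule for the calls: active = compounds cutting yeast growth whose half-maximal concentration is at most twice their top valid dose; inconclusive = flat growth loss of 30 to 70 percent, or poor fit; inactive = the rest.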

System: Candida glabrata growth in glycerol, OD600, 48 h
Experiment: antifungal activity against respiring C. glabrata – glycerol medium, OD600, powder samples, set 2, dose response (AID 623903)
Conditions: not given

SMILES | AC50
CCOC(=O)N1C(=O)C2(CCCCC2)N(c2ccc(C(C)(C)C)cc2)C1=S | 1980 nM
CCOC(=O)N1C(=O)C2(CCC2)N(c2ccc(C)cc2)C1=S | 2510 nM
CCOC(=O)N1C(=O)C2(CCCCC2)N(c2ccccc2C)C1=S | 541 nM
CCOC(=O)N1C(=S)N(c2ccc(C)cc2)C2(CCCCC2)C1=NCc1ccccc1 | 3750 nM
CCCc1ccc(N2C(=S)N(C(=O)OCC)C(=O)C23CCCCC3)cc1 | 629 nM
Cc1ccc(N2C(=S)N(C(=O)OC(C)C)C(=O)C23CCCCC3)cc1 | 638 nM
CCOC(=O)N1C(=O)C2(CCCCC2)N(c2ccc(C(F)(F)F)cc2)C1=S | 44.3 nM
CCCCN1C(=O)N(c2ccc(C)cc2)C2(CCCCC2)C1=S | > 12000 nM (inactive)
CCOC(=O)N1C(=O)C2(CCCCC2)N(c2ccc(F)cc2)C1=S | < 23.5 nM
CCOC(=O)N1C(=O)C2(CCCCC2)N(c2ccc(-c3ccccc3)cc2)C1=S | 242 nM
CCCC(=O)N1C(=O)C2(CCCCC2)N(c2ccc(C)cc2)C1=S | 102 nM
CCOC(=O)N1C(=O)C2(CCCCC2)N(c2cccc(C)c2)C1=S | 86.6 nM
CCOC(=O)N1C(=O)C2(CCCCC2)N(Cc2ccccc2)C1=S | < 23.5 nM
CCCOC(=O)N1C(=O)C2(CCCCC2)N(c2ccc(C)cc2)C1=S | 95.3 nM
CCOC(=O)N1C(=O)C2(CCCC2)N(c2ccc(C)cc2)C1=S | 315 nM
CCOC(=O)N1C(=O)C2(CCCCC2)N(c2ccccc2)C1=S | 28.9 nM
CC1/C=C/C=C\C=C\C=C\C=C\C=C\C=C\C(O[C@H]2OC(C)C(O)C(N)C2O)CC2OC(O)(CC(O)CC(O)C(O)CCC(O)CC(O)CC(=O)OC(C)C(C)C1O)CC(O)C2C(=O)O (stereo partly drawn) | 205 nM
CCOC(=O)N1C(=O)C2(CCCCC2)N(c2ccc(C(C)C)cc2)C1=S | 829 nM
CCOC(=O)N1C(=O)C2(CCCCC2)N(C(C)C)C1=S | 2750 nM
CCOC(=O)N1C(=O)C2(CCOCC2)N(c2ccc(C)cc2)C1=S | 1480 nM
CCOC(=O)N1C(=O)C2(CCCCC2)N(c2ccc(C)cc2)C1=S | 56.4 nM and 45.2 nM
CCOC(=O)N1C(=O)C2(CCCCC2)N(c2ccc(OC)cc2)C1=S | 255 nM
COC(=O)N1C(=O)C2(CCCCC2)N(c2ccc(C)cc2)C1=S | 136 nM
Cc1ccc(N2C(=S)N(C(=O)OCc3ccccc3)C(=O)C23CCCCC3)cc1 | 5540 nM
CCOC(=O)N1C(=O)C2(CCCCC2)N(c2ccc(C#N)cc2)C1=S | 67.2 nM
CCOC(=O)N1C(=O)C2(CCCCC2)N(c2ccc(CC)cc2)C1=S | 133 nM
CCCCN1C(=O)C2(CCCCC2)N(c2ccc(C)cc2)C1=S | > 12000 nM (inactive)
Cc1ccc(N2C(=S)NC(=O)C23CCOCC3)cc1 | > 12000 nM (inactive)
CCOC(=O)N1C(=O)C2(CCCCC2)N(c2ccc(Cl)cc2)C1=S | < 23.5 nM

System: not listed separately
Experiment: as above
Conditions: Candida glabrata growth in glycerol, OD600, 48 h; at 6 µM (top of the series)

SMILES | growth change, negative = inhibition
O=C1NC(=S)N(c2ccc(F)cc2)C12CCCCC2 | -17.4% (inactive)
Cc1ccc(N2C(=S)NC(=O)C2(C)C)cc1 | -2.42% (inactive)
CCOC(=O)N1C(=O)C2(CCCCC2)NC1=S | -2.7% (inactive)
Cc1ccc(N2CC(=O)NC2=S)cc1 | 3.32% (inactive)
O=C1NC(=S)N(c2ccccc2)C12CCCCC2 | 21.1% (inactive)
O=C1NC(=S)N(Cc2ccccc2)C12CCCCC2 | -0.552% (inactive)
Cc1ccc(N2C(=O)N(C)C(=O)C23CCCCC3)cc1 | 24.2% (inactive)
CC(C)N1C(=S)NC(=O)C12CCCCC2 | 5.61% (inactive)
Cc1ccc(N2C(=O)NC(=O)C23CCCCC3)cc1 | 44.5% (inactive)
Cc1ccc(N2C(=S)NC(=O)C23CCC3)cc1 | 3.27% (inactive)
CCOC(=O)N1C(=S)NC(=O)C12CCCCC2 | 11.1% (inactive)
CCOC(=O)N1C(=O)C(C)(C)N(c2ccc(C)cc2)C1=S | -13.4% (inactive)
Cc1ccc(N2C(=O)C3(CCCCC3)NC2=S)cc1 | 5.63% (inactive)
O=C1NC(=S)NC12CCCCC2 | 10.1% (inactive)
CCCCN1C(=O)N(c2ccc(C)cc2)C2(CCCCC2)C1=O | -2.19% (inactive)
Cc1ccc(N2CC(=O)NC2=O)cc1 | 28.9% (inactive)
Cc1ccc(N2C(=S)N(C)C(=O)C23CCCCC3)cc1 | -20.3% (inactive)
CCOC(=O)N1C(=S)N(c2ccc(C)cc2)C(=O)C12CCCCC2 | 14.3% (inactive)
Cc1ccc(N2C(=S)NC(=O)C23CCCC3)cc1 | -31.4% (inactive)
Cc1ccc(N2C(=S)N(S(C)(=O)=O)C(=O)C23CCCCC3)cc1 | 1.2% (inactive)
CCOC(=O)N1C(=O)N(c2ccc(C)cc2)C2(CCCCC2)C1=O | -38.8% (inactive)
Cc1ccc(N2C(=S)NC(=O)C23CCCCC3)cc1 | -3.05% (inactive)
Cc1ccc(N2C(=O)C(=O)NC2=S)cc1 | 19.6% (inactive)
Cc1ccc(N2C(=S)N(C(=O)Oc3ccccc3)C(=O)C23CCCCC3)cc1 | -4.17% (inactive)
